Results taken from patent US12492183B2, “Tetrahydroquinazoline derivatives as selective cytotoxic agents” (Merck Sharp & Dohme LLC, priority 2020, dated 2025).

test system: PBMCs infected with VSV-G pseudotyped HIV virus (VSV-G/pNLG1-P2A-ΔEnv); assay: cells; assay type: cell-based; conditions: Homo sapiens, PBMC, read-out: TACK EC50

| SMILES | EC50 [nM] |
| --- | --- |
| Cc1ccc(Cc2ccc3c(c2)NC(=O)N[C@]3(C#CC2CC2)C(F)(F)F)c(=O)[nH]1 [Example 1, (S)-4-(cyclopropylethynyl)-7-((6-methyl-2-oxo-1,2-dihydropyridin-3-yl)methyl)-4-(trifluoromethyl)-3,4-dihydroquinazolin-2(1H)-one] | 120 |
| Nc1ncc(F)c(Cc2cc3c(cc2Cl)[C@@](C#CC2CC2)(C(F)(F)F)NC(=O)N3)n1 [Example 32, (S)-7-((2-amino-5-fluoropyr-imidin-4-yl)methyl)-6-chloro-4-(cyclopropylethynyl)-4-(trifluoromethyl)-3,4-dihydro-quinazolin-2(1H)-one] | 156 |
| N#Cc1c(Cc2cc3c(cc2F)[C@@](C#CC2CC2)(C(F)(F)F)NC(=O)N3)ccnc1N [Example 52, (S)-2-amino-4-((4-(cyclo-propylethynyl)-6-fluoro-2-oxo-4-(trifluoromethyl)-1,2,3,4-tetrahydroquinazolin-7-yl)methyl)nicotinonitrile] | 21.4 |
| Nc1ncnc(Cc2ccc3c(c2)NC(=O)N[C@]3(C#CC2CC2)C(F)(F)F)n1 [Example 49, (S)-7-((4-amino-1,3,5-triazin-2-yl)methyl)-4-(cyclopropyl-ethynyl)-4-(trifluoromethyl)-3,4-dihydroquinazolin-2(1H)-one] | 146 |
| NS(=O)(=O)c1ccc(Cc2ccc3c(c2)NC(=O)N[C@]3(C#CC2CC2)C(F)(F)F)cc1 [Example 9, (S)-4-((4-(cyclopropylethynyl)-2-oxo-4-(trifluoromethyl)-1,2,3,4-tetrahydroquinazolin-7-yl)meth-yl)benzenesulfonamide] | 193 |
